Laboratory results published in ChEMBL document CHEMBL1143484, “Discovery of 1-amino-4-phenylcyclohexane-1-carboxylic acid and its influence on agonist selectivity between human melanocortin-4 and -1 receptors in linear pentapeptides” (Bioorg Med Chem Lett, 2005).
Non-standard residues stand in square brackets, D forms with d. Residues, ends and D or L forms follow the SMILES beside them. *: point of attachment. Butyryl = CCCC(=O)*

Key:
[1] = molecular target: T1, Melanocyte-stimulating hormone receptor (Homo sapiens, UniProt Q01726); assay: Concentration (50 uM) required for cAMP accumulation mediated by human Melanocortin 1 receptor in HEK293 cells; assay type: functional, cell-based
Target sequence in this assay (Q01726 whole entry, looked up): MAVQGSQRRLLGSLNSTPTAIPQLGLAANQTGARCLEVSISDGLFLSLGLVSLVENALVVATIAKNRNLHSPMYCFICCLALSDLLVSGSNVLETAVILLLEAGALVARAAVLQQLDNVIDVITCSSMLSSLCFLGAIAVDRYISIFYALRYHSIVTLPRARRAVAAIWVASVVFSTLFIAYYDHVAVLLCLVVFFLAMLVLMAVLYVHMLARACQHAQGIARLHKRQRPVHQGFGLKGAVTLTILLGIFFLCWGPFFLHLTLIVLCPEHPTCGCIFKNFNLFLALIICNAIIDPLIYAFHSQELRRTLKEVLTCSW

[2] = molecular target: T2, Melanocortin receptor 4 (Homo sapiens, UniProt P32245); assay: Effective concentration for cAMP accumulation mediated by human Melanocortin 4 receptor in HEK293 cells; assay type: functional, cell-based
T2 sequence (P32245 whole entry): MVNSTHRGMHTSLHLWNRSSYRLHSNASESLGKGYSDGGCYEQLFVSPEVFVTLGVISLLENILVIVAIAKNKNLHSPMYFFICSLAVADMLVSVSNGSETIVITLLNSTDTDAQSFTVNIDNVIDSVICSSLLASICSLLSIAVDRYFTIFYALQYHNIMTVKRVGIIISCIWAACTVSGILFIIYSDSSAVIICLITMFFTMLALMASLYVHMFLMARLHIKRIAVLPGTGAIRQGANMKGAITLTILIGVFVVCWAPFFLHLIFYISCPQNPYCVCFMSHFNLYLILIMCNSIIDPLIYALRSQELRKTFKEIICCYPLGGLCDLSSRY

[3] = molecular target: T1, Melanocyte-stimulating hormone receptor; assay: Effective concentration required for cAMP accumulation mediated by human Melanocortin 1 receptor in HEK293 cells; assay type: functional, cell-based
Target sequence in this assay (Q01726 whole entry): as the sequence (Q01726 whole entry, looked up) above

[4] = molecular target: Melanocortin receptor 3 (Homo sapiens) (UniProt P41968); assay: Concentration (50 uM) required for cAMP accumulation mediated by human Melanocortin 3 receptor in HEK293 cells; assay type: functional, cell-based
Chain of Melanocortin receptor 3 (Homo sapiens) (P41968 whole entry): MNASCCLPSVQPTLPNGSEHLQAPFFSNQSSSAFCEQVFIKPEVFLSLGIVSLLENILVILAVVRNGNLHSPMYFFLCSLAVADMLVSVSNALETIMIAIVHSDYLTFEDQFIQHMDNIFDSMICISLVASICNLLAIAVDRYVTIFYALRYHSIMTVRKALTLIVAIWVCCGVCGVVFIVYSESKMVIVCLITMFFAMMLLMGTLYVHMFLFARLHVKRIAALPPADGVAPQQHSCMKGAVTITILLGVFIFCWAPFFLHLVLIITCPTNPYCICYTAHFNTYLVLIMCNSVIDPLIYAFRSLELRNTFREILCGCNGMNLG

[5] = molecular target: Melanocortin receptor 5 (Homo sapiens) (UniProt P33032); assay: Concentration (50 uM) required for cAMP accumulation mediated by human Melanocortin 5 receptor in HEK293 cells; assay type: functional, cell-based
Chain of Melanocortin receptor 5 (Homo sapiens) (P33032 whole entry): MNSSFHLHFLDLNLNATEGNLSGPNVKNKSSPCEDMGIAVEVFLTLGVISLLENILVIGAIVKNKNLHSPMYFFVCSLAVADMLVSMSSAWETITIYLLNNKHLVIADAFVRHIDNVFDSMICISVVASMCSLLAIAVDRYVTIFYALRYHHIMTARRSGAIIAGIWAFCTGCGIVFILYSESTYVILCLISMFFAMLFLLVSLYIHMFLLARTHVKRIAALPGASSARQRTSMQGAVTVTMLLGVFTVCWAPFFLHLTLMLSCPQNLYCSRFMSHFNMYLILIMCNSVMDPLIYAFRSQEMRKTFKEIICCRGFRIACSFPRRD

[6] = molecular target: T1, Melanocyte-stimulating hormone receptor; assay: Binding affinity towards human Melanocortin 1 receptor using radiolabeled NDP-MSH displacement
Target sequence in this assay (Q01726 whole entry): as the sequence (Q01726 whole entry, looked up) above

[7] = molecular target: T2, Melanocortin receptor 4; assay: Binding affinity towards human Melanocortin 4 receptor using radiolabeled NDP-MSH displacement
[8] = molecular target: T2, Melanocortin receptor 4; assay: Concentration (50 uM) required for cAMP accumulation mediated by human Melanocortin 4 receptor in HEK293 cells; assay type: functional, cell-based

Row | Structure (SMILES) | cAMP accumulation at 50 uM [1] | EC50 [2] | EC50 [3] | also measured
1 | CCCCC(=O)N[C@@]1(C(=O)N[C@H](Cc2ccccc2)C(=O)N[C@@H](CCCN=C(N)N)C(=O)N[C@@H](Cc2c[nH]c3ccccc23)C(=O)NCC(N)=O)CCc2ccccc2C1 | – | 45 nM | 830 nM | –
2 | CCCCC(=O)N[C@]1(C(=O)N[C@H](Cc2ccccc2)C(=O)N[C@@H](CCCNC(=N)N)C(=O)N[C@@H](Cc2c[nH]c3ccccc23)C(=O)NCC(N)=O)CC[C@H](c2ccc(Cl)cc2)CC1 | – | 4 nM | – | –
3 | CCCCC(=O)N[C@]1(C(=O)N[C@H](Cc2ccccc2)C(=O)N[C@@H](CCCNC(=N)N)C(=O)N[C@@H](Cc2c[nH]c3ccccc23)C(=O)NCC(N)=O)CC[C@H](c2ccccc2)CC1 | – | 2 nM | – | IC50 [6]: 7100 nM; IC50 [7]: 13 nM
4 | CCCCC(=O)N[C@]1(C(=O)N[C@H](Cc2ccccc2)C(=O)N[C@@H](CCCNC(=N)N)C(=O)N[C@@H](Cc2c[nH]c3ccccc23)C(=O)NCC(N)=O)CC[C@H](c2cccc(OC)c2)CC1 | – | 2 nM | 690 nM | –
5 | CCCCC(=O)N[C@]1(C(=O)N[C@H](Cc2ccccc2)C(=O)N[C@@H](CCCNC(=N)N)C(=O)N[C@@H](Cc2c[nH]c3ccccc23)C(N)=O)CC[C@H](c2ccccc2)CC1 | – | 130 nM | 1300 nM | –
6 | CCCCC(=O)N[C@]1(C(=O)N[C@H](Cc2ccccc2)C(=O)N[C@@H](CCCNC(=N)N)C(=O)N[C@@H](Cc2c[nH]c3ccccc23)C(=O)NCC(N)=O)CC[C@H](c2ccc(OC(C)C)cc2)CC1 | – | 6 nM | – | –
7 | CCCC(=O)N[C@@H](Cc1c[nH]cn1)C(=O)N[C@H](Cc1ccccc1)C(=O)N[C@@H](CCCN=C(N)N)C(=O)N[C@@H](Cc1c[nH]c2ccccc12)C(=O)NCC(N)=O (Butyryl-H[dF]RWG-NH2) | – | – | – | Accumulation [4]: 0%; Accumulation [5]: 0%
8 | NC(=O)CNC(=O)[C@H](Cc1c[nH]c2ccccc12)NC(=O)[C@H](CCCN=C(N)N)NC(=O)[C@@H](Cc1ccccc1)NC(=O)[C@H]1CC[C@H](c2ccccc2)CC1 | 60% | 550 nM | – | –
9 | CCCCC(=O)N[C@]1(C(=O)N[C@H](Cc2ccccc2)C(=O)N[C@@H](CCCN=C(N)N)C(=O)N[C@@H](Cc2c[nH]c3ccccc23)C(=O)NCC(N)=O)CC[C@H](c2cc(CCC)cc(CCC)c2)CC1 | – | – | 210 nM | Accumulation [8]: 60%

Second part, led by results:

Row | cAMP accumulation at 50 uM [1] | EC50 [2] | EC50 [3] | Structure (SMILES) | also measured
10 | 0% | 9 nM | – | CCCCC(=O)N[C@]1(C(=O)NC(Cc2ccccc2)C(=O)NC(CCCN=C(N)N)C(=O)N[C@@H](Cc2c[nH]c3ccccc23)C(=O)NCC(N)=O)CC[C@H](c2ccc(OC)cc2)CC1 (single isomer, unassigned) | –
11 | 45% | – | – | CCCCC(=O)N[C@]1(C(=O)N[C@H](Cc2ccccc2)C(=O)N[C@@H](CCCN=C(N)N)C(=O)N[C@@H](Cc2c[nH]c3ccccc23)C(=O)NCC(N)=O)CC[C@H](c2ccc(Cl)cc2)CC1 | –
12 | 25% | – | – | CCCCC(=O)N[C@]1(C(=O)N[C@H](Cc2ccccc2)C(=O)N[C@@H](CCCN=C(N)N)C(=O)N[C@@H](Cc2c[nH]c3ccccc23)C(=O)NCC(N)=O)CC[C@H](c2ccccc2)CC1 | Accumulation [4]: 57%; Accumulation [5]: 36%
13 | – | 13 nM | – | CCCCC(=O)N[C@]1(C(=O)N[C@H](Cc2ccccc2)C(=O)N[C@@H](CCCNC(=N)N)C(=O)N[C@@H](Cc2c[nH]c3ccccc23)C(=O)NCC(N)=O)CC[C@H](c2ccc(OCC)cc2)CC1 | IC50 [6]: 4700 nM; IC50 [7]: 43 nM
14 | 60% | – | – | CCCCC(=O)N[C@]1(C(=O)N[C@H](Cc2ccccc2)C(=O)N[C@@H](CCCN=C(N)N)C(=O)N[C@@H](Cc2c[nH]c3ccccc23)C(=O)NCC(N)=O)CC[C@H](c2ccc(OC(C)C)cc2)CC1 | –
15 | – | 88 nM | 1300 nM | CCCCC(=O)N[C@]1(C(=O)NC(Cc2ccccc2)C(=O)NC(CCCN=C(N)N)C(=O)N[C@@H](Cc2c[nH]c3ccccc23)C(=O)NCC(N)=O)CC[C@@H](c2ccccc2)CC1 (single isomer, unassigned) | –
16 | – | 5 nM | 1300 nM | CCCCC(=O)N[C@]1(C(=O)N[C@H](Cc2ccccc2)C(=O)N[C@@H](CCCNC(=N)N)C(=O)N[C@@H](Cc2c[nH]c3ccccc23)C(=O)NCC(N)=O)CC[C@H](c2ccc(O)cc2)CC1 | –
17 | 55% | 3 nM | – | CCCCC(=O)N[C@]1(C(=O)NC(Cc2ccccc2)C(=O)NC(CCCN=C(N)N)C(=O)N[C@@H](Cc2c[nH]c3ccccc23)C(=O)NCC(N)=O)CC[C@H](c2ccc(C)cc2)CC1 (single isomer, unassigned) | –
18 | 0% | – | – | CCCCC(=O)N[C@]1(C(=O)N[C@H](Cc2ccccc2)C(=O)N[C@@H](CCCN=C(N)N)C(=O)N[C@@H](Cc2c[nH]c3ccccc23)C(=O)NCC(N)=O)CC[C@H](c2ccc(OCC)cc2)CC1 | Accumulation [4]: 28%; Accumulation [5]: 46%
